Experimental data taken from patent US7255984B2, “Combination therapy for osteoporosis” (Pfizer Inc., priority 1996, dated 2007).

Key:
[1] = system: ovariectomized (OVX) rats, lumbar spine; test: Lumbar vertebral bone mineral measurements (DXA) in OVX rats, combination and sequential treatment; format: in vivo, female Sprague-Dawley rats
Procedure: One hundred and four female Sprague-Dawley rats (Charles River, Wilmington, Mass.) at 12 months of age were sham-operated or ovariectomized (OVX) at month 0. Three months post-surgery, OVX rats were treated with either Prostaglandin E2 (PGE2), a known anabolic bone agent, at 3 mg/kg/day (subcutaneously injection), or PGE2 at 3 mg/kg/day (subcutaneously injection) combined with droloxifene (DRO) at 10 mg/kg/day (orally) for 2 months. Thereafter, the PGE2 treatment was withdrawn and the rats were then treated with either vehicle (10% alcohol in saline) or DRO (10 mg/kg/day, orally) for another one and a half months as described in the following.
Group VIII: Eight OVX rats were subcutaneously injected with 3 mg/kg/day of PGE2 from months 3 to 5, and autopsied at month 5.
Group IX: Eight OVX rats were subcutaneously injected with 3 mg/kg/day of PGE2 from months 3 to 5, and vehicle from 5 to 6.5 months, and then autopsied at month 6.5.
Group X: Eight OVX rats were subcutaneously injected with 3 mg/kg/day of PGE2 from months 3 to 5, and 10 mg/kg/day of DRO orally from 5 to 6.5 months, and then autopsied at month 6.5.
Group XI: Eight OVX rats were subcutaneously injected with 3 mg/kg/day of PGE2 and 10 mg/kg/day of DRO orally from months 3 to 5, and then autopsied at month 5.
Group XII: Eight OVX rats were subcutaneously injected with 3 mg/kg/day of PGE2 and 10 mg/kg/day of DRO orally from months 3 to 5, and vehicle from months 5 to 6.5, then autopsied at month 6.5.
Group XIII: Eight OVX rats were subcutaneously injected with 3 mg/kg/day of PGE2 and 10 mg/kg/day of DRO orally from months 3 to 5, and DRO alone from months 5 to 6.5, then autopsied at month 6.5.
Both PGE2 (Cayman Chemical Co., Ann Arbor, Mich.) or droloxifene (Pfizer Inc. Groton, Conn.) powder was first dissolved in 100% ethanol and further diluted with saline into desired concentrations (final ethanol concentration was 10%). A PGE2 solution was daily injected subcutaneously on the back at 1 ml/kg. A droloxifene solution was given daily p.o. at 1 ml/rat.
Dual energy x-ray absorptiometry (QDR 1000/W, Hologic, Inc., Waltham, Mass.) equipped with a “Regional High Resolution Scan” software (Hologic, Inc., Waltham, Mass.) was used to determined the bone area, bone mineral content (BMC), and bone mineral density (BMD) of whole lumbar spine and each of the six lumbar vertebrae (LV1-6) in the anesthetized rats. The rats were anesthetized by injection (i.p.) of 1 ml/kg of a mixture of ketamine/rompun (ratio of 4 to 3), and then placed on the rat platform. The scan field sized was 6×1.9 cm, resolution was 0.0254×0.0127 cm, and scan speed was 7.25 mm/sec. The whole lumbar spine scan image was obtained and analyzed. Bone area (BA), and bone mineral content (BMC) were determined, and bone mineral density was calculated (MBC divided by BA) for the whole lumbar spine and each of the six lumbar vertebrae (LV1-6).

Ovariectomized Rats = settings: cited from earlier work
[2] = system: Osteogenic Female Rat Skeleton; settings: risedronate administered after discontinuing PGE2; cited from earlier work
[3] = OVX rats, PGE2 3 mg/kg/day months 3 to 5, then vehicle months 5 to 6.5

## CC/C(=C(/c1ccc(OCCN(C)C)cc1)c1cccc(O)c1)c1ccccc1 [DRO, phenol, 3-[1-[4[2-(dimethylamino)ethoxy]phenyl]-2-phenyl-1-butenyl]-, (E)-]
[1]; OVX rats, DRO 10 mg/kg/day orally combined with PGE2 3 mg/kg/day s.c. for 2 months
  Effect of DRO on the anabolic effects of PGE2: did not blunt
[1]; OVX rats, PGE2 months 3 to 5, then DRO 10 mg/kg/day orally months 5 to 6.5
  Maintenance of PGE2-restored bone after discontinuation of PGE2: completely maintained
[1]; OVX rats, PGE2 plus DRO months 3 to 5, then DRO alone 10 mg/kg/day months 5 to 6.5
  Bone loss in the lumbar spine when PGE2 was withdrawn and DRO continued for another 1.5 months: no bone loss

## CCCCC[C@H](O)/C=C/[C@H]1[C@H](O)CC(=O)[C@@H]1C/C=C\CCCC(=O)O [PGE2, Prostaglandin E2]
[1]; [3]
  BMC of LV2 upon PGE2 cessation of treatment: significant decrease
  BMD of LV1, LV2, and LV3 upon PGE2 cessation of treatment: significant decrease
[1]; rats 3 months post-OVX, treated for 2 months (months 3 to 5), PGE2 3 mg/kg/day s.c., DRO 10 mg/kg/day orally
  BMC and BMD of whole lumbar spine and lumbar vertebrae versus sham control levels: completely restored

## O=C(c1ccc(OCCN2CCCCC2)cc1)c1c(-c2ccc(O)cc2)sc2cc(O)ccc12 [raloxifene, 6hydroxy-2-(4-hydroxyphenyl)-3-[4-(2-piperidinoethoxy)benzoyl]benzo[b]thiophene]
Ovariectomized Rats; compared with estrogen
  Action on bone and lipids: mimics the favorable action of estrogen
Ovariectomized Rats; unlike estrogen
  Uterine stimulatory effect: minimal

## O=P(O)(O)C(O)(Cc1cccnc1)P(=O)(O)O [risedronate]
[2]
  Time for which most of the new cancellous and cortical bone induced by PGE2 is maintained after discontinuing PGE2: at least 60 days
